Where a SMILES comes first, the peptide text is derived from it.

In the first test the target is HLA B*1503 (Homo sapiens, UniProt P01889, A329T/A93T/A95T/C349S/D201E/D98Y/E187L/E204Q/K202T/N87E/Q94N/R155S/R180L/S121R/S35A/V306I/V36M/Y140S/Y91S). Briefly: biochemical. In kind it is binding.
The term IC50 denotes the point on the concentration scale where inhibition reaches its midpoint. Regarding `CC[C@H](C)[C@H](NC(=O)[C@H](CO)NC(=O)[C@H](CCCNC(=N)N)NC(=O)[C@H](CCCNC(=N)N)NC(=O)[C@@H](NC(=O)[C@@H](NC(=O)[C@@H](NC(=O)[C@H](CCCCN)NC(=O)[C@@H](N)Cc1ccccc1)C(C)C)[C@@H](C)O)[C@@H](C)O)C(=O)O` [3102.1295] (H-FKVTTRRSI-OH), the IC50 was 4.6 nM.

As to `CC[C@H](C)[C@H](NC(=O)[C@H](CO)NC(=O)[C@@H](NC(=O)[C@H](C)NC(=O)[C@H](CC(C)C)NC(=O)[C@H](CC(N)=O)NC(=O)[C@H](CCCCN)NC(=O)[C@@H](N)Cc1ccccc1)[C@@H](C)O)C(=O)N[C@@H](Cc1ccc(O)cc1)C(=O)O` [3102.1297] (H-FKNLATSIY-OH), the IC50 was 1.6 nM. In the case of `CC[C@H](C)[C@H](NC(=O)[C@H](CC(=O)O)NC(=O)[C@@H](NC(=O)[C@H](Cc1ccccc1)NC(=O)[C@@H](NC(=O)[C@H](CCCCN)NC(=O)[C@@H](N)Cc1ccc(O)cc1)C(C)C)[C@@H](C)O)C(=O)N[C@@H](CO)C(=O)N[C@@H](CCSC)C(=O)O` [3102.1298] (H-YKVFTDISM-OH), the midpoint of inhibition, the IC50, lay at 2.2 nM.

Regarding `CSCC[C@H](NC(=O)[C@H](CCCCN)NC(=O)[C@H](CS)NC(=O)[C@H](CO)NC(=O)[C@H](CO)NC(=O)[C@H](CCC(N)=O)NC(=O)[C@@H](N)CCCNC(=N)N)C(=O)N[C@@H](C)C(=O)N[C@@H](CC(C)C)C(=O)O` [3102.1299] (H-RQSSCKMAL-OH), the IC50 amounted to 19 nM.

For the compound `CC[C@H](C)[C@H](NC(=O)[C@H](CO)NC(=O)[C@H](CC(C)C)NC(=O)[C@@H](NC(=O)[C@H](CCCCN)NC(=O)[C@@H](N)Cc1c[nH]c2ccccc12)C(C)C)C(=O)N[C@@H](CCSC)C(=O)N[C@@H](C)C(=O)N[C@@H](Cc1ccccc1)C(=O)O` [3102.1300] (H-WKVLSIMAF-OH), 9.3 nM corresponded to half-maximal inhibition (IC50). On the same count and under the same terms, with `CC(C)C[C@H](N)C(=O)N[C@@H](CCCCN)C(=O)N[C@@H](CO)C(=O)N[C@@H](CC(N)=O)C(=O)N[C@@H](C)C(=O)N[C@@H](CC(=O)O)C(=O)N[C@@H](Cc1c[nH]c2ccccc12)C(=O)N[C@@H](Cc1ccccc1)C(=O)N[C@@H](Cc1ccccc1)C(=O)O` [3102.1304] (H-LKSNADWFF-OH) the figure was 10 nM; with `CC[C@H](C)[C@H](N)C(=O)N[C@@H](CCSC)C(=O)N[C@H](C(=O)N[C@@H](CO)C(=O)NCC(=O)N[C@H](C(=O)N[C@H](C(=O)N1CCC[C@H]1C(=O)N[C@@H](Cc1ccccc1)C(=O)O)[C@@H](C)CC)C(C)C)[C@@H](C)O` [3102.1305] (H-IMTSGVIPF-OH), 0.22 nM. Same read-out and setting: with `CC(C)[C@H](NC(=O)[C@@H](NC(=O)[C@H](C)NC(=O)[C@H](Cc1ccc(O)cc1)NC(=O)[C@@H](NC(=O)[C@H](C)NC(=O)[C@@H](N)CO)[C@@H](C)O)[C@@H](C)O)C(=O)N1CCC[C@H]1C(=O)N[C@@H](Cc1ccccc1)C(=O)O` [3102.1306] (H-SATYATVPF-OH) the figure was 12 nM; with `CC(C)[C@H](NC(=O)[C@H](CCC(N)=O)NC(=O)[C@H](CO)NC(=O)[C@@H](NC(=O)[C@H](CO)NC(=O)[C@@H](NC(=O)[C@H](CCC(N)=O)NC(=O)[C@@H](N)Cc1ccc(O)cc1)[C@@H](C)O)C(C)C)C(=O)N[C@@H](C)C(=O)O` [3102.1307] (H-YQTSVSQVA-OH), 1.5 nM. Still for that read-out and setting: with `CSCC[C@H](NC(=O)[C@H](CC(N)=O)NC(=O)CNC(=O)[C@H](CS)NC(=O)CNC(=O)[C@H](Cc1ccc(O)cc1)NC(=O)[C@H](CCCCN)NC(=O)[C@@H](N)CCCNC(=N)N)C(=O)N[C@@H](Cc1ccccc1)C(=O)O` [3102.1308] (H-RKYGCGNMF-OH) the figure was 1.3 nM; with `CC[C@H](C)[C@H](NC(=O)[C@H](CC(N)=O)NC(=O)[C@H](CC(C)C)NC(=O)[C@H](Cc1ccccc1)NC(=O)[C@H](CC(C)C)NC(=O)[C@@H](N)Cc1ccccc1)C(=O)N[C@@H](CC(N)=O)C(=O)N[C@@H](Cc1c[nH]cn1)C(=O)N[C@@H](Cc1ccc(O)cc1)C(=O)O` [3102.1309] (H-FLFLNINHY-OH), 6.5 nM. Compound `CC(C)C[C@H](NC(=O)[C@@H](NC(=O)[C@H](CO)NC(=O)[C@H](C)NC(=O)[C@H](Cc1ccc(O)cc1)NC(=O)[C@H](CCC(N)=O)NC(=O)[C@H](C)N)[C@@H](C)O)C(=O)N[C@@H](CO)C(=O)N[C@H](C(=O)O)C(C)C` [3102.1314] (H-AQYASTLSV-OH) had an IC50 of 0.16 nM. Still for that read-out and setting: with `CC[C@H](C)[C@H](NC(=O)[C@H](CO)NC(=O)[C@@H]1CCCN1C(=O)[C@H](CC(C)C)NC(=O)[C@@H](NC(=O)[C@H](CCSC)NC(=O)[C@H](CCSC)NC(=O)[C@@H](N)CC(C)C)[C@@H](C)O)C(=O)N[C@@H](Cc1ccccc1)C(=O)O` [3102.1317] (H-LMMTLPSIF-OH) the figure was 0.15 nM; with `CC[C@H](C)[C@H](N)C(=O)N[C@@H](CCSC)C(=O)N[C@H](C(=O)N[C@@H](CO)C(=O)N[C@@H](CCC(=O)O)C(=O)N[C@@H](Cc1c[nH]cn1)C(=O)N[C@@H](Cc1ccccc1)C(=O)N[C@@H](CO)C(=O)N[C@@H](CC(C)C)C(=O)O)C(C)C` [3102.1318] (H-IMVSEHFSL-OH), 5.5 nM; with `CC(C)[C@H](NC(=O)[C@H](CC(N)=O)NC(=O)[C@@H](N)CO)C(=O)N[C@H](C(=O)N[C@@H](CS)C(=O)NCC(=O)N[C@H](C(=O)N[C@H](C(=O)N[C@@H](Cc1ccccc1)C(=O)O)[C@@H](C)O)[C@@H](C)O)C(C)C` [3102.1319] (H-SNVVCGTTF-OH), 25 nM.

Regarding `CC[C@H](C)[C@H](NC(=O)[C@H](CC(N)=O)NC(=O)[C@@H](NC(=O)[C@H](C)NC(=O)[C@H](CS)NC(=O)[C@H](CCCNC(=N)N)NC(=O)[C@@H](NC(=O)[C@@H](N)CO)[C@@H](C)CC)[C@@H](C)O)C(=O)N[C@@H](Cc1ccccc1)C(=O)O` [3102.1321] (H-SIRCATNIF-OH), the IC50 came to 20 nM. Consider `C[C@H](NC(=O)[C@H](Cc1c[nH]c2ccccc12)NC(=O)[C@H](CO)NC(=O)CNC(=O)[C@@H](N)CCCNC(=N)N)C(=O)N[C@H](C(=O)N[C@@H](CO)C(=O)N[C@@H](CO)C(=O)N[C@@H](Cc1ccccc1)C(=O)O)[C@@H](C)O` [3102.1323] (H-RGSWATSSF-OH), for which the half-maximal inhibitory concentration (IC50) amounted to 11 nM. In turn, `CC[C@H](C)[C@H](NC(=O)[C@H](Cc1ccccc1)NC(=O)[C@H](CCC(=O)O)NC(=O)[C@H](Cc1ccccc1)NC(=O)[C@H](C)NC(=O)[C@H](C)N)C(=O)N[C@@H](CC(N)=O)C(=O)N[C@@H](CO)C(=O)N[C@@H](CC(C)C)C(=O)O` [3102.1324] (H-AAFEFINSL-OH) gave an IC50 of 4.6 nM. Still for that read-out and setting: with `CC[C@H](C)[C@H](N)C(=O)N[C@@H](CCCCN)C(=O)N[C@H](C(=O)N[C@@H](CCSC)C(=O)N[C@@H](CCSC)C(=O)N[C@H](C(=O)N[C@@H](CC(N)=O)C(=O)N1CCC[C@H]1C(=O)N[C@@H](Cc1ccccc1)C(=O)O)[C@@H](C)CC)[C@@H](C)O` [3102.1325] (H-IKTMMINPF-OH) the figure was 0.19 nM; with `CC[C@H](C)[C@H](N)C(=O)N[C@@H](CCC(N)=O)C(=O)N[C@@H](Cc1ccc(O)cc1)C(=O)N[C@@H](CC(=O)O)C(=O)N[C@@H](CCCNC(=N)N)C(=O)N[C@@H](CCCNC(=N)N)C(=O)N[C@@H](CO)C(=O)N[C@@H](Cc1ccccc1)C(=O)N[C@@H](Cc1ccccc1)C(=O)O` [3102.1327] (H-IQYDRRSFF-OH), 0.15 nM; with `CC(C)C[C@H](NC(=O)[C@H](CO)NC(=O)[C@@H]1CCCN1C(=O)[C@H](CO)NC(=O)[C@H](Cc1ccccc1)NC(=O)[C@H](CO)NC(=O)[C@@H](NC(=O)[C@H](CO)NC(=O)[C@@H](N)Cc1ccccc1)C(C)C)C(=O)O` [3102.1332] (H-FSVSFSPSL-OH), 22 nM.

In turn, `CSCC[C@H](NC(=O)[C@@H](N)CCCCN)C(=O)N[C@H](C(=O)N[C@@H](Cc1ccc(O)cc1)C(=O)N[C@@H](C)C(=O)N[C@@H](CC(C)C)C(=O)N[C@@H](CC(C)C)C(=O)N[C@@H](CC(C)C)C(=O)N[C@@H](Cc1ccc(O)cc1)C(=O)O)C(C)C` [3102.1336] (H-KMVYALLLY-OH) showed an IC50 of 2.7 nM. Still for that read-out and setting: the value for `CC(C)C[C@H](NC(=O)[C@H](C)NC(=O)[C@H](CO)NC(=O)[C@@H](N)Cc1ccccc1)C(=O)N1CCC[C@H]1C(=O)N[C@H](C(=O)N[C@@H](CC(N)=O)C(=O)N[C@@H](CCC(=O)O)C(=O)N[C@@H](Cc1ccccc1)C(=O)O)[C@@H](C)O` [3102.1337] (H-FSALPTNEF-OH) was 0.13 nM.

As for `CC[C@H](C)[C@H](NC(=O)[C@H](CO)NC(=O)[C@H](CC(=O)O)NC(=O)[C@H](CO)NC(=O)[C@H](CC(N)=O)NC(=O)[C@H](CCC(N)=O)NC(=O)[C@H](CCC(N)=O)NC(=O)[C@@H](N)CO)C(=O)N[C@@H](Cc1ccccc1)C(=O)O` [3102.1340] (H-SQQNSDSIF-OH), the half-inhibitory concentration (IC50) turned out to be 1.9 nM.

As to `CC[C@H](C)[C@H](NC(=O)[C@H](CC(N)=O)NC(=O)[C@@H](NC(=O)[C@H](Cc1ccccc1)NC(=O)[C@H](CO)NC(=O)[C@@H](NC(=O)[C@H](CO)NC(=O)[C@@H](N)Cc1c[nH]c2ccccc12)[C@@H](C)O)[C@@H](C)O)C(=O)N[C@@H](Cc1ccccc1)C(=O)O` [3102.1342] (H-WSTSFTNIF-OH), the IC50 was found to be 5.9 nM. As for `CC[C@H](C)[C@H](NC(=O)[C@H](CC(C)C)NC(=O)[C@H](CCC(=O)O)NC(=O)[C@@H](NC(=O)[C@@H](NC(=O)[C@H](CCC(N)=O)NC(=O)[C@@H](N)CO)[C@@H](C)O)[C@@H](C)CC)C(=O)N[C@@H](C)C(=O)N[C@@H](Cc1ccccc1)C(=O)O` [3102.1343] (H-SQTIELIAF-OH), inhibition was half-maximal at 0.21 nM (IC50). On the same count and under the same terms, the value for `CC[C@H](C)[C@H](NC(=O)[C@H](CC(N)=O)NC(=O)[C@H](CCSC)NC(=O)[C@@H](NC(=O)[C@H](CCSC)NC(=O)[C@@H](N)CC(C)C)[C@@H](C)O)C(=O)N[C@H](C(=O)N[C@@H](CC(N)=O)C(=O)N[C@@H](Cc1ccccc1)C(=O)O)C(C)C` [3102.1344] (H-LMTMNIVNF-OH) was 17 nM.

In a further test the target is HLA A*3001 (Homo sapiens, UniProt P04439, D140H/D185E/E176W/F33S/G80R/H175R/K168Q/R138E/R41S). Nature of the test: biochemical. In kind it is binding.
Sequence of HLA A*3001 (P04439 25-365 limits assumed, stated change not applied): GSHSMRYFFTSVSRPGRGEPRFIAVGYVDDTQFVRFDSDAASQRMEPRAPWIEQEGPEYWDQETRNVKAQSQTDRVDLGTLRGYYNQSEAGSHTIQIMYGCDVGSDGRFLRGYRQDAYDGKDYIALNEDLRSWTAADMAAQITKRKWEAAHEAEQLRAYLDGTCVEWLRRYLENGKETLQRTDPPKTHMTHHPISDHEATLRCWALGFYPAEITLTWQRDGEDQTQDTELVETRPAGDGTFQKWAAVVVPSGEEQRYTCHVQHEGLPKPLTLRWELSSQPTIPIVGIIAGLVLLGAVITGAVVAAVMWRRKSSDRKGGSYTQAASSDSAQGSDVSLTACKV
Take `CC[C@H](C)[C@H](N)C(=O)N[C@H](C(=O)N[C@@H](CCCCN)C(=O)N[C@H](C(=O)N[C@@H](CC(N)=O)C(=O)N[C@H](C(=O)N[C@@H](Cc1c[nH]cn1)C(=O)N[C@@H](CC(C)C)C(=O)N[C@@H](C)C(=O)O)[C@@H](C)O)[C@@H](C)CC)[C@@H](C)O` [3102.0001] (H-ITKINTHLA-OH): the IC50 worked out at 15 nM.

These data come from paper PMC2248166, “Quantitative peptide binding motifs for 19 human and mouse MHC class I molecules derived using positional scanning combinatorial peptide libraries” (Immunome Research, 2008).
